Activity calls are given as the source filed them.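 How the source made its calls: active means a concentration killing half the fathead minnows in the acute test was determined; inconclusive means some fish died but not half at top dose; inactive means no fish died even at top dose.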
Each compound was assayed on Fathead minnow (Pimephales promelas) acute toxicity, lethality (assay: DSSTox (EPAFHM) EPA Fathead Minnow Acute Toxicity).
From the text: The EPA Fathead Minnow Acute Toxicity database was generated by the U.S. EPA Mid-Continental Ecology Division (MED) for the purpose of developing an expert system to predict acute toxicity from chemical structure based on mode of action considerations. […] A second valuable aspect of this database, from a QSAR modeling perspective, is the inclusion of general mode-of-action (MOA) classifications of acute toxicity response for individual chemicals derived from study results. MOA assignments are biologically based classifications, allowing definition of chemical similarity based upon biological activity instead of organic chemistry functional class as most commonly employed in QSAR study. MOA classifications should strengthen the scientific basis for construction of individual QSARs. However, it is cautioned that the broad MOA categorizations should not be construed to represent a single molecular mechanism; for example, CNS seizure agents and respiratory inhibitors are known to act through a variety of receptors. The EPA Fathead Minnow database and results have been used by EPA MED to build components of the ASTER prediction system, which incorporates MOA-based QSARs for the prediction of aquatic toxicity of environmental and industrial chemicals. Briefly, MOA classifications for individual chemicals, derived from experiments and provided in the EPA Fathead Minnow database, were used to derive substructural rules for assigning a new chemical to an MOA category based solely on chemical structure. Once a new chemical is assigned to an MOA category on this basis, the logP-based QSAR for that MOA category is applied.
The DSSTox EPAFHM database (available from the DSSTox Source URL) includes information pertaining to organic chemical class assignments (ChemClass_FHM), acute toxicity in fathead minnow (LC50_mg), dose-response assessments (LC50_Ratio, ExcessToxicityIndex), behavioral assessments (FishBehaviorTest), joint toxicity MOA evaluations of mixtures (MOA_MixtureTest), and additional MOA evaluation of fish acute toxicity syndrome (FishAcuteToxSyndrome) in rainbow trout. All of these indicators, to the extent available, were considered in the determination of MOA and, additionally, were used to determine a level of confidence in the MOA assignment for each chemical (MOA_Confidence). […] Activity Score is mapping of LOG10 (1/LC50_mmol) activity values spanning activity range [MIN, MAX] onto Integer 1-100 Activity range, where 100 is highest potency and 1 is lowest. If Activity Outcome is "active": Activity Score = 100 * INTEGER[(log10(1/ LC50_mmol) - MIN)/([…])].
For COC(=O)c1ccc(O)cc1O, the Potency was 272 µM. N#Cc1ccccn1 showed a Potency of 6970 µM. For O=Cc1c(F)c(F)c(F)c(F)c1F, the Potency was 5.61 µM. ON=C1CCCCC1 gave a Potency of 1840 µM. Work on CCCc1ccc(O)cc1 yielded a Potency of 80.8 µM. Compound OC1CCCCC1 has a Potency of 7030 µM. For CCOP(=S)(OCC)Oc1cc(C)nc(C(C)C)n1, the Potency was 30.7 µM. Compound O=Cc1cc(Br)ccc1O has a Potency of 6.46 µM. Work on COC(=O)c1ccc(C(=O)OC)c([N+](=O)[O-])c1 yielded a Potency of 27.3 µM. c1ccc(Nc2ccccc2)cc1 gave a Potency of 22.4 µM. O=Cc1ccc([N+](=O)[O-])cc1 gave a Potency of 66.8 µM. CC(O)CN (configuration not stated) gave a Potency of 33600 µM. Compound O=P(Oc1ccccc1)(Oc1ccccc1)Oc1ccccc1 has a Potency of 2.66 µM. Compound CCCC(C)C1(CC)C(=O)N=C(S)NC1=O (configuration not stated) has a Potency of 99.1 µM. C=CCC(O)C=C (configuration not stated) showed a Potency of 388 µM. In the case of CCCCCCCCCCc1ccc(N)cc1, the Potency is reported as 0.266 µM. With CCC(C)n1c(=O)[nH]c(C)c(Br)c1=O (configuration not stated) the Potency was 712 µM. Cc1cccc([N+](=O)[O-])c1 was tested, and the Potency was 187 µM. Work on O=Cc1ccc(O)cc1O yielded a Potency of 95 µM. For CCCC(C)C=O (configuration not stated), the Potency was 188 µM. For Nc1ccc(F)cc1, the Potency was 152 µM. With c1ccc(-c2nc(-c3ccccc3)c(-c3ccccc3)[nH]2)cc1 the outcome was “inactive; moa not determined either due to lack of toxicity at saturation or late test res”. For O=P(Oc1c(Cl)cccc1Cl)(Oc1c(Cl)cccc1Cl)Oc1c(Cl)cccc1Cl, the outcome was “inactive; moa not determined either due to lack of toxicity at saturation or late test res”. With c1cc2c3c(cccc3c1)CC2 the Potency was 11.2 µM. With c1ccc(-c2ccc(-c3ccccc3)o2)cc1 the outcome was “inactive; moa not determined either due to lack of toxicity at saturation or late test res”. Compound CN1CCNCC1 has a Potency of 23000 µM. In the case of c1ccc(CN2CCNCC2)cc1, the Potency is reported as 269 µM. OCCNCCO was tested, and the Potency was 44800 µM. CCCCOC(=O)/C=C/C(=O)OCCCC gave a Potency of 2.76 µM. For CS(C)=O, the Potency was 435000 µM. C=CC(C)(O)CC/C=C(\C)CCC=C(C)C (configuration not stated) gave a Potency of 6.43 µM. O=c1cccc(Cl)[nH]1 showed a Potency of 1650 µM. With O=Cc1cc([N+](=O)[O-])ccc1Cl the Potency was 20.9 µM. In the case of c1ccc(N(c2ccccc2)c2ccccc2)cc1, the outcome is reported as “inactive; moa not determined either due to lack of toxicity at saturation or late test res”. Work on COc1ccc(C(C)=O)c(O)c1 yielded a Potency of 418 µM. CCCCOC(=O)c1ccc(C(=O)OCCCC)cc1 was tested, and the Potency was 2.12 µM. O=Cc1cccnc1 gave a Potency of 153 µM. O=C(O)c1cccc(C(=O)O)n1 showed a Potency of 1930 µM. Cc1ccc(O)c(C)c1 was tested, and the Potency was 136 µM. C=C[C@@](C)(O)CC[C@H]1C(=C)CC[C@H]2C(C)(C)CCC[C@]12C was tested, and the Potency was 0.413 µM. In the case of Nc1ccc([N+](=O)[O-])cc1Cl, the Potency is reported as 116 µM. For CCOC(=O)c1ccc(N)cc1, the Potency was 216 µM. For CCCCCCCCCCC(C)=O, the Potency was 6.4 µM. Oc1c(Br)cc(Br)cc1Br was tested, and the Potency was 19.8 µM. N#Cc1ccccc1C(F)(F)F gave a Potency of 247 µM. For CCCCCCCCN, the Potency was 40.2 µM. CCCCCCC(=O)CCCCCC was tested, and the outcome was “inactive; moa not determined either due to lack of toxicity at saturation or late test res”. For CCOP(=O)(OCC)SCCSCC, the Potency was 61.9 µM. For Nc1ccc(O)c([N+](=O)[O-])c1, the Potency was 235 µM. CCC(C)N (configuration not stated) showed a Potency of 3760 µM. [N-]=[N+]=[N-] showed a Potency of 84 µM. With Cc1cc(Oc2ccc([N+](=O)[O-])cc2)ccc1Cl the outcome was “inactive; moa not determined either due to lack of toxicity at saturation or late test res”. Cc1ccc(O)cc1 was tested, and the Potency was 153 µM. In the case of O=C1C2CC3CC(C2)CC1C3, the Potency is reported as 405 µM. Compound O=C(c1ccc(Br)cc1)c1cccnc1 has a Potency of 77.8 µM. Compound N#Cc1cc(I)c(O)c(I)c1 has a Potency of 18.3 µM. For CNC(=O)Oc1cccc2c1OC(C)(C)C2, the Potency was 3.81 µM. CCC(C)c1cc([N+](=O)[O-])cc([N+](=O)[O-])c1O (configuration not stated) gave a Potency of 2.23 µM. C=CC=O showed a Potency of 0.303 µM. CCOP(=O)(Cc1ccccc1)OCC showed a Potency of 1470 µM. Compound CCCCCCOc1ccc(N)cc1 has a Potency of 15.6 µM. For c1ccoc1, the Potency was 896 µM. COC(=O)c1ccc(C(=O)OC)c(N)c1 showed a Potency of 42.7 µM. Oc1ccc(N=Nc2ccccc2)cc1 showed a Potency of 6 µM. Work on CCCC=O yielded a Potency of 204 µM. Work on CC(C)OC(C)C yielded a Potency of 7690 µM. Work on Cc1ccc(N)cc1 yielded a Potency of 1490 µM. For CCOC(=O)CCCCC(=O)OCC, the Potency was 89.9 µM. C1=CC2CCC1C2 showed a Potency of 106 µM. For c1ccccc1, the Potency was 225 µM. Compound CCC[CH2][Sn]([CH2]CCC)([CH2]CCC)[CH2]CCC has a Potency of 0.13 µM. CCc1cccc(CC)c1 gave a Potency of 30.9 µM.
